These results are taken from PubChem BioAssay (NCI).

The structures appear in SMILES notation. “And” between values parts separate entries of the source, which are not always exact repeats. Equal values may be shown once.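 Cultured in 96-well plates, cells were exposed to test compound for 48 hours across five concentrations. The concentration for 50% growth inhibition is given as GI50. At the TGI there is no net growth.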

The first experiment has as its system MDA-MB-231 breast. Put plainly: growth of human tumour cells (NCI), 48 h.
With `COc1ccc2c(c1)CCC1C2CCC2(C)C1CCC2(O)CNC(=O)CCCCC1CCSS1` (centres undefined), the GI50 is 2.8 µM and the TGI is 8.3 µM.

Regarding `C=CCC(N[C@H](CO)C(C)C)c1cn(C(=O)OCC)c2ccccc12` (some centres undefined), the GI50 is 13.2 µM and the TGI came to 31.2 µM.

Take `CC1(C)CCC2(C(=O)OC3OC(CO)C(O)C(O)C3O)CC[C@]3(C)C(=CCC4C5(C)CC[C@H](OC6OC(C(=O)O)C(O)C(O)C6O)C(C)(C)C5CCC43C)C2C1` (some centres undefined): the GI50 is 1.15 µM and the TGI worked out at 2.76 µM.

Turning to `COc1ccc(C(=O)/C=C/c2ccc(Cl)cc2)cc1S(=O)(=O)Nc1c(N)nc(SC)[nH]c1=O`, the GI50 was 3.42 µM and the TGI was determined as 10.5 µM.

As for `O=S(=O)(c1ccc(NC(=S)NCc2cccnc2)cc1)N1CCCCC1`, the GI50 was 26.4 µM and the TGI is more than 100 µM.

`O=C(O)CSSCC(=O)O` registered a TGI of more than 100 µM.

Turning to `CC(C)(C(=O)NN)c1ccccc1`, the TGI is more than 100 µM.

With `COc1cccc(C2=C(c3cn(C)c4ccccc34)C(=O)NC2=O)c1`, the GI50 was 17.4 µM and the TGI is more than 25 µM.

With `Fc1ccc2[nH]cc(Cc3c[nH]c4ccc(F)cc34)c2c1`, the GI50 was 16.7 µM and the TGI was determined as 46.5 µM.

Turning to `O=C(CCN1CCCC1)Nc1ccc2c(NCc3ccc(F)cc3)c3ccccc3nc2c1`, the GI50 was 0.454 µM and the TGI amounted to 1.91 µM.

With `C=C1C(=O)O[C@@H]2C1CC(=O)C(C)CC/C=C(\C)CCC[C@H](C)[C@H]2OC(C)=O` (some centres undefined), the GI50 was 15.5 µM and the TGI worked out at 33.5 µM.

`CSc1nnc(CCSc2ccnc3c(C(F)(F)F)cccc23)o1`: the GI50 is more than 100 µM and the TGI was more than 100 µM.

As to `N#CC(C#N)=Cc1ccc(-c2ccc(-c3nc4ccccc4s3)cc2)o1`, the GI50 is 19.8 µM and the TGI was 37.8 µM.

On to `Fc1ccc(-c2nc3n(c2-c2ccncc2)CCS3)cc1`, for which the GI50 is more than 25 µM and the TGI is more than 25 µM.

Turning to `C=C(C)[C@@H]1CC=C(CO)CC1`, the TGI was more than 10 µM.

Another experiment relates to SK-MEL-28 melanoma. Put plainly: growth of human tumour cells (NCI), 48 h.
In the case of `COc1ccc2c(c1)CCC1C2CCC2(C)C1CCC2(O)CNC(=O)CCCCC1CCSS1` (centres undefined), the GI50 was 64.9 µM and the TGI is more than 100 µM.

Turning to `C=CCC(N[C@H](CO)C(C)C)c1cn(C(=O)OCC)c2ccccc12` (some centres undefined), the GI50 was 53.6 µM and the TGI was more than 100 µM.

For `CC1(C)CCC2(C(=O)OC3OC(CO)C(O)C(O)C3O)CC[C@]3(C)C(=CCC4C5(C)CC[C@H](OC6OC(C(=O)O)C(O)C(O)C6O)C(C)(C)C5CCC43C)C2C1` (some centres undefined), the GI50 is 2.6 µM and the TGI was determined as 12.2 µM.

With `COc1ccc(C(=O)/C=C/c2ccc(Cl)cc2)cc1S(=O)(=O)Nc1c(N)nc(SC)[nH]c1=O`, the GI50 is 2.1 µM and the TGI amounted to 4.97 µM.

On to `O=S(=O)(c1ccc(NC(=S)NCc2cccnc2)cc1)N1CCCCC1`, for which the GI50 is 50.4 µM and the TGI is more than 100 µM.

On to `O=C(O)CSSCC(=O)O`, for which the TGI is more than 100 µM.

Regarding `CC(C)(C(=O)NN)c1ccccc1`, the TGI is more than 100 µM.

In the case of `COc1cccc(C2=C(c3cn(C)c4ccccc34)C(=O)NC2=O)c1`, the GI50 was more than 21.7 µM and the TGI is more than 25 µM.

Take `Fc1ccc2[nH]cc(Cc3c[nH]c4ccc(F)cc34)c2c1`: the GI50 was 25.3 µM and the TGI amounted to 76.7 µM.

Turning to `O=C(CCN1CCCC1)Nc1ccc2c(NCc3ccc(F)cc3)c3ccccc3nc2c1`, the GI50 was 1.47 µM and the TGI was determined as 2.88 µM.

Consider `C=C1C(=O)O[C@@H]2C1CC(=O)C(C)CC/C=C(\C)CCC[C@H](C)[C@H]2OC(C)=O` (some centres undefined), for which the GI50 was 11.8 µM and the TGI came out at 25.3 µM.

Turning to `CSc1nnc(CCSc2ccnc3c(C(F)(F)F)cccc23)o1`, the GI50 was more than 100 µM and the TGI is more than 100 µM.

`N#CC(C#N)=Cc1ccc(-c2ccc(-c3nc4ccccc4s3)cc2)o1`: the GI50 was 27.5 µM and the TGI is more than 100 µM.

As to `Fc1ccc(-c2nc3n(c2-c2ccncc2)CCS3)cc1`, the GI50 was more than 25 µM and the TGI was more than 25 µM.

`C=C(C)[C@@H]1CC=C(CO)CC1`: the GI50 was more than 10 µM; the TGI was > 10 µM and 829 µM.

The test system of the next experiment is SK-MEL-2 melanoma. Put plainly: growth of human tumour cells (NCI), 48 h.
For the molecule `COc1ccc2c(c1)CCC1C2CCC2(C)C1CCC2(O)CNC(=O)CCCCC1CCSS1` (centres undefined), the GI50 is 33.2 µM and the TGI was more than 100 µM.

For the molecule `C=CCC(N[C@H](CO)C(C)C)c1cn(C(=O)OCC)c2ccccc12` (some centres undefined), the GI50 is 42.3 µM and the TGI is more than 100 µM.

With `CC1(C)CCC2(C(=O)OC3OC(CO)C(O)C(O)C3O)CC[C@]3(C)C(=CCC4C5(C)CC[C@H](OC6OC(C(=O)O)C(O)C(O)C6O)C(C)(C)C5CCC43C)C2C1` (some centres undefined), the GI50 is 1.85 µM and the TGI was determined as 10.7 µM.

Turning to `COc1ccc(C(=O)/C=C/c2ccc(Cl)cc2)cc1S(=O)(=O)Nc1c(N)nc(SC)[nH]c1=O`, the GI50 was 12.8 µM and the TGI worked out at 27.9 µM.

`O=S(=O)(c1ccc(NC(=S)NCc2cccnc2)cc1)N1CCCCC1`: the GI50 was 16.6 µM and the TGI was more than 100 µM.

In the case of `O=C(O)CSSCC(=O)O`, the TGI was more than 100 µM.

On to `CC(C)(C(=O)NN)c1ccccc1`, for which the TGI is more than 100 µM.

Consider `COc1cccc(C2=C(c3cn(C)c4ccccc34)C(=O)NC2=O)c1`, for which the GI50 is 8.79 µM and the TGI is more than 25 µM.

Take `Fc1ccc2[nH]cc(Cc3c[nH]c4ccc(F)cc34)c2c1`: the GI50 was 19.8 µM and the TGI is 46.1 µM.

In the case of `O=C(CCN1CCCC1)Nc1ccc2c(NCc3ccc(F)cc3)c3ccccc3nc2c1`, the GI50 is 1.21 µM and the TGI was found to be 2.7 µM.

Regarding `C=C1C(=O)O[C@@H]2C1CC(=O)C(C)CC/C=C(\C)CCC[C@H](C)[C@H]2OC(C)=O` (some centres undefined), the GI50 is 17.6 µM and the TGI turned out to be 45.5 µM.

In the case of `CSc1nnc(CCSc2ccnc3c(C(F)(F)F)cccc23)o1`, the GI50 was more than 100 µM and the TGI is more than 100 µM.

For `N#CC(C#N)=Cc1ccc(-c2ccc(-c3nc4ccccc4s3)cc2)o1`, the GI50 was 63.2 µM and the TGI is more than 100 µM.

Turning to `Fc1ccc(-c2nc3n(c2-c2ccncc2)CCS3)cc1`, the GI50 was more than 25 µM and the TGI is more than 25 µM.

As for `C=C(C)[C@@H]1CC=C(CO)CC1`, the GI50 was more than 10 µM; the TGI is > 10 µM and 817 µM.

Another experiment relates to SN12C renal. Put plainly: growth of human tumour cells (NCI), 48 h.
As for `COc1ccc2c(c1)CCC1C2CCC2(C)C1CCC2(O)CNC(=O)CCCCC1CCSS1` (centres undefined), the GI50 was 16.6 µM and the TGI is more than 100 µM.

As to `C=CCC(N[C@H](CO)C(C)C)c1cn(C(=O)OCC)c2ccccc12` (some centres undefined), the GI50 is 19.7 µM and the TGI turned out to be 51.6 µM.

Regarding `CC1(C)CCC2(C(=O)OC3OC(CO)C(O)C(O)C3O)CC[C@]3(C)C(=CCC4C5(C)CC[C@H](OC6OC(C(=O)O)C(O)C(O)C6O)C(C)(C)C5CCC43C)C2C1` (some centres undefined), the GI50 is 1.39 µM and the TGI stood at 3.55 µM.

As to `COc1ccc(C(=O)/C=C/c2ccc(Cl)cc2)cc1S(=O)(=O)Nc1c(N)nc(SC)[nH]c1=O`, the GI50 was 3.45 µM and the TGI amounted to 13.8 µM.

`O=S(=O)(c1ccc(NC(=S)NCc2cccnc2)cc1)N1CCCCC1`: the GI50 was 0.21 µM and the TGI was more than 100 µM.

Take `O=C(O)CSSCC(=O)O`: the TGI is more than 100 µM.

In the case of `CC(C)(C(=O)NN)c1ccccc1`, the TGI was more than 100 µM.

On to `COc1cccc(C2=C(c3cn(C)c4ccccc34)C(=O)NC2=O)c1`, for which the GI50 was 12.5 µM and the TGI was more than 25 µM.

For the molecule `Fc1ccc2[nH]cc(Cc3c[nH]c4ccc(F)cc34)c2c1`, the GI50 is 21.6 µM and the TGI came out at 51.4 µM.

For `O=C(CCN1CCCC1)Nc1ccc2c(NCc3ccc(F)cc3)c3ccccc3nc2c1`, the GI50 is 0.39 µM and the TGI was 1.66 µM.

`C=C1C(=O)O[C@@H]2C1CC(=O)C(C)CC/C=C(\C)CCC[C@H](C)[C@H]2OC(C)=O` (some centres undefined): the GI50 is 5.46 µM and the TGI was 21.6 µM.

Turning to `CSc1nnc(CCSc2ccnc3c(C(F)(F)F)cccc23)o1`, the GI50 was more than 100 µM and the TGI is more than 100 µM.

As for `N#CC(C#N)=Cc1ccc(-c2ccc(-c3nc4ccccc4s3)cc2)o1`, the GI50 is 1.09 µM and the TGI was determined as 12.6 µM.

Take `Fc1ccc(-c2nc3n(c2-c2ccncc2)CCS3)cc1`: the GI50 was more than 25 µM and the TGI is more than 25 µM.

In the case of `C=C(C)[C@@H]1CC=C(CO)CC1`, the GI50 was more than 10 µM; the TGI was > 10 µM and 1220 µM.

A further experiment relates to COLO 205 colon. The experiment can be described thus: growth of human tumour cells (NCI), 48 h.
With `COc1ccc2c(c1)CCC1C2CCC2(C)C1CCC2(O)CNC(=O)CCCCC1CCSS1` (centres undefined), the GI50 was 6.14 µM and the TGI is more than 100 µM.

As for `C=CCC(N[C@H](CO)C(C)C)c1cn(C(=O)OCC)c2ccccc12` (some centres undefined), the GI50 is 25.4 µM and the TGI was 65.9 µM.

`CC1(C)CCC2(C(=O)OC3OC(CO)C(O)C(O)C3O)CC[C@]3(C)C(=CCC4C5(C)CC[C@H](OC6OC(C(=O)O)C(O)C(O)C6O)C(C)(C)C5CCC43C)C2C1` (some centres undefined): the GI50 was 1.36 µM and the TGI amounted to 3.55 µM.

Turning to `COc1ccc(C(=O)/C=C/c2ccc(Cl)cc2)cc1S(=O)(=O)Nc1c(N)nc(SC)[nH]c1=O`, the GI50 is 1.76 µM and the TGI turned out to be 3.42 µM.

Take `O=S(=O)(c1ccc(NC(=S)NCc2cccnc2)cc1)N1CCCCC1`: the GI50 is 8.63 µM and the TGI is more than 100 µM.

Regarding `O=C(O)CSSCC(=O)O`, the TGI was more than 100 µM.

Molecule `CC(C)(C(=O)NN)c1ccccc1` returned a TGI of more than 100 µM.

For `COc1cccc(C2=C(c3cn(C)c4ccccc34)C(=O)NC2=O)c1`, the GI50 is 9.92 µM and the TGI was more than 25 µM.

Take `Fc1ccc2[nH]cc(Cc3c[nH]c4ccc(F)cc34)c2c1`: the GI50 was 28.2 µM and the TGI was 95.6 µM.

As to `O=C(CCN1CCCC1)Nc1ccc2c(NCc3ccc(F)cc3)c3ccccc3nc2c1`, the GI50 was 0.396 µM and the TGI was 1.65 µM.

`C=C1C(=O)O[C@@H]2C1CC(=O)C(C)CC/C=C(\C)CCC[C@H](C)[C@H]2OC(C)=O` (some centres undefined): the GI50 was 5.34 µM and the TGI was more than 100 µM.

As for `CSc1nnc(CCSc2ccnc3c(C(F)(F)F)cccc23)o1`, the GI50 is more than 100 µM and the TGI is more than 100 µM.

For `N#CC(C#N)=Cc1ccc(-c2ccc(-c3nc4ccccc4s3)cc2)o1`, the GI50 is 20.6 µM and the TGI came out at 55.3 µM.

For the molecule `Fc1ccc(-c2nc3n(c2-c2ccncc2)CCS3)cc1`, the GI50 is more than 25 µM and the TGI is more than 25 µM.

Turning to `C=C(C)[C@@H]1CC=C(CO)CC1`, the GI50 was more than 10 µM; the TGI was > 10 µM and 768 µM.
